Test results taken from patent US4988681A, “Phosphinic acid derivatives” (Banyu Pharmaceutical Co., Ltd., priority 1988, dated 1991).
Like-named read-outs stand apart in the source and are kept apart here.

Key:
[1] = Effect on urinary recovery of carbapenem (imipenem) in rats; format: in vivo, Male SD rats; settings: urine up to 8 hours, n = 3
Description: (2) Effect on urinary recovery of carbapenem
Male SD rats (8 week-old) were grouped, three per group. Imipenem alone was intravenously administered in a dose of 10 mg/kg to a first group. […] For comparison, a combination of imipenem (10 mg/kg) and cilastatin (10 mg/kg) was intravenously administered to a fourth group.
The urinary recovery of imipenem was calculated.

[2] = Pharmacokinetic evaluation: plasma concentration in rats; format: in vivo, Male SD rats; settings: for AUC / concentration at 0.5 h / concentration at 0.25 h / concentration at 5 min / concentration at 1 h / concentration at 2 h / concentration at 4 h / concentration at 6 h / concentration at 8 h / concentration at 24 h: rat; for AUC: trapezoidal rule; for concentration at 0.5 h: 1/2 h; for concentration at 0.25 h: 1/4 h; for concentration at 5 min: 1/12 h
Description: (4) Pharmacokinetic evaluations
Male SD rats ([…]) were divided into groups each consisting of three animals. […] Furthermore, cilastatin was intravenously administered to a 14th group as a control group.
Plasma samples were taken periodically from the carotid artery through a cannula inserted into it at the points of 1/12, 1/4, 1/2, 1, 2, 4, 6, 8 and 24 hours after the administration.
The area under the curve (AUC) of the plasma concentration was determined according to the trapezoidal rule.

[3] = molecular target: T1, porcine kidney dehydropeptidase I (Sus scrofa, UniProt P22412); assay: Inhibitory activity on porcine kidney dehydropeptidase I (DHP-I); format: biochemical
T1 construct: Frozen porcine kidney cortex was homogenized; from tissue; host or cells: porcine kidney cortex
T1 sequence (P22412 17-409): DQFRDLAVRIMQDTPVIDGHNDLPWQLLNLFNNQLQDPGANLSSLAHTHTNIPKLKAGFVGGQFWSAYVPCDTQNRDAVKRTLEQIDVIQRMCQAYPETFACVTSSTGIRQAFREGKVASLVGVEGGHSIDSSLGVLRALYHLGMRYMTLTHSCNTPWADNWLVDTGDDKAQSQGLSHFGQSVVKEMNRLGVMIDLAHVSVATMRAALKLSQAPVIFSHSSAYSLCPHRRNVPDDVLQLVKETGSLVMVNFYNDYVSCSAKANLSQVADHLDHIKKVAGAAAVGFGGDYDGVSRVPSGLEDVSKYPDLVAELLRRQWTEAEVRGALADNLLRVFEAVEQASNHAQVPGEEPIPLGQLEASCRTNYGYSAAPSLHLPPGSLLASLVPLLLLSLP
Description: (1) Inhibitory activity on porcine kidney dehydropeptidase I
(i) Purification of porcine dehydropeptidase I
Frozen porcine kidney cortex was homogenized. Butanol (1/4 volume) pre-cooled in a dry ice-acetone bath was added to the homogenate, and the mixture was stirred at 4° C. for 43 hours. The mixture was then dialyzed for one day and centrifuged at 3,000 g for 30 minutes. To the resulting supernatant was added ammonium sulfate. A precipitate at the salt concentration range between 50 and 75% was collected to give a crude enzyme preparation which was re-dissolved in a 50 mM MOPS buffer containing 0.5 M NaCl. The solution was charged on a cilastatin affinity column. Elution with a 50 mM MOPS buffer containing 0.5 M NaCN gave a purified enzyme preparation.
(ii) Measurement of inhibitory activity
The resulting enzyme preparation (3 mU) and an inhibitor were pre-incubatedat 37° C. for 3 hours in 2.7 ml of a 50 mM MOPS buffer (pH 7.4), and then 2.475 ml of the mixture was transferred into a cuvette. As a substrate, 25 microliters of a 5 mM glycyldehydrophenylalanine solution in a 50 mM MOPS buffer (pH 7.4) was added to start an enzymic reaction. The reaction was carried out at 37° C. in a spectrophotometer fitted with a constant-emperature device, and a decrease of the absorbance at 275 nm during a period of 5 minutes was measured. […] An IC50 value was calculated from the percent inhibition data.
One unit (U) is defined as the amount of the enzyme which hydrolyzes 1 micromole of the substrate (glycyldehydrophenylalanine) per minute at a substrate concentration of 0.05 mM at 37° C. in a 50 mM MOPS buffer (pH 7.4).

DHP-I = settings: in words, cited from earlier work
[4] = system: nephrotoxicity induced by imipenem; assay: Protective action on nephrotoxicity induced by imipenem in rabbits; format: in vivo, male Japanese white rabbits; settings: imipenem 150 mg/kg alone
Description: (3) Protective action on nephrotoxicity induced by carbapenem antibiotics
Twelve male Japanese white rabbits (18 week-old; body weight 3.19-3.54 kg) were divided into three groups each consisting of 4 animals. Imipenem alone was administered in a dose of 150 mg/kg to a first group. To a second group, a combination of imipenem (150 mg/kg) and the compound No. 2 (150 mg/kg) was administered. To a third group as a control, sterilized physiological saline was administered. In all cases, the administration was effected through the auricular vein. Forty-eight hours later, a blood sample was taken from each of the animals, and the BUN and creatinine values were measured. The kidneys of the rabbits were taken and examined histopathologically.

[5] = in vivo, iv 10 mg/kg (cilastatin dose not given)
[6] = DHP-I inhibitory compounds of cited literature including cilastatin
[7] = plasma, iv 10 mg/kg (cilastatin dose not given)
[8] = plasma, iv 10 mg/kg (cilastatin dose not given), N.D.: below the detection limit
[9] = plasma, iv 10 mg/kg, N.D.: below the detection limit
[10] = plasma, po 10 mg/kg, N.D.: below the detection limit
[11] = substrate glycyldehydrophenylalanine, pH 7.4, 37° C., 3 h pre-incubation, read-out: Concentration producing 50% inhibition (IC50)
[12] = plasma, ester po, 10 mg/kg equivalent to compound No. 2, calculated as free acid (No. 2)

Structure (SMILES) | AUC [2, 7] [ng·h/mL] | AUC ([2]; plasma, po 10 mg/kg) [ng·h/mL] | concentration at 0.5 h [2, 7] [ng/mL] | concentration at 0.25 h [2, 7] [ng/mL] | concentration at 5 min [2, 7] [ng/mL] | concentration at 1 h [2, 8] [ng/mL] | concentration at 2 h ([2]; plasma, iv 10 mg/kg) [ng/mL] | concentration at 4 h ([2]; plasma, iv 10 mg/kg) [ng/mL] | concentration at 6 h [2, 9] [ng/mL] | concentration at 8 h ([2]; plasma, iv 10 mg/kg) [ng/mL] | concentration at 24 h [2, 9] [ng/mL] | concentration at 0.5 h ([2]; plasma, po 10 mg/kg) [ng/mL] | concentration at 0.25 h ([2]; plasma, po 10 mg/kg) [ng/mL] | concentration at 5 min ([2]; plasma, po 10 mg/kg) [ng/mL] | concentration at 1 h ([2]; plasma, po 10 mg/kg) [ng/mL] | concentration at 2 h ([2]; plasma, po 10 mg/kg) [ng/mL] | concentration at 4 h ([2]; plasma, po 10 mg/kg) [ng/mL] | concentration at 6 h ([2]; plasma, po 10 mg/kg) [ng/mL] | concentration at 8 h [2, 10] [ng/mL] | IC50 [3, 11] [nM] | other results
CC1(C)C[C@@H]1C(=O)N/C(=C\CCCCSC[C@H](N)C(=O)O)C(=O)O [Cilastatin, reference compound] |  |  |  |  |  |  |  |  |  |  |  |  |  |  |  |  |  |  |  |  | Urinary recovery of imipenem, Mean ± S.D. ([1]; inhibitor 10 mg/kg iv with imipenem 10 mg/kg iv): 85.9 ± 2.9%; AUC [2, 5]: 12000 ng·h/mL; concentration at 0.5 h [2, 5]: 5800 ng/mL; concentration at 0.25 h [2, 5]: 18800 ng/mL; concentration at 5 min [2, 5]: 46900 ng/mL; IC50 [3]: 100 nM; Activity in oral administration (DHP-I; [6]): do not show sufficient activity in oral administration; Duration of action (DHP-I; [6]): do not always have satisfactory duration of action; Effect on potential renal toxicity of imipenem (DHP-I; combined use with imipenem): prevent its potential renal toxicity; Effect on urinary recovery of imipenem (DHP-I; combined use with imipenem): greatly improve urinary recovery of imipenem; Oral absorption (DHP-I): not orally absorbable
O=C(O)/C(=C/C1CCCCC1)CP(=O)(O)CC1CCCC1 [Compound No. 17, (Z)-3-cyclohexyl-2-(cyclopentylmethylhydroxyphosphinoyl)methylpropenoic acid] | 226000 | 18400 | 55000 | 74700 | 86700 | 38000 | 25200 | 14800 | 10800 | 6400 | 500 | 5000 | 4100 | 500 | 5000 | 3200 | 2100 | 1000 | 100 | 18 | 
CC(C)CP(=O)(O)C/C(=C\CCCSC[C@H](N)C(=O)O)C(=O)O [Compound No. 23, (Z)-6-[(L)-2-amino-2-carboxyethyl]thio-2-(hydroxyisobutylphosphinoyl)methyl-2-hexenoic acid] | 17900 |  | 13900 | 21000 | 28700 | 4200 | 900 | 100 |  |  |  |  |  |  |  |  |  |  |  | 48 | 
Cc1oc(=O)oc1COC(=O)/C(=C/C1CCCCC1)CP(=O)(O)CC(C)C [Compound No. 27, (5-methyl-2-oxo-1,3-dioxol-4-yl)methyl (Z)-3-cyclohexyl-2-(hydroxyisobutylphosphinoyl)methylpropenoate] |  |  |  |  |  |  |  |  |  |  |  |  |  |  |  |  |  |  |  | 150000 | AUC [2, 12]: 56900 ng·h/mL; concentration at 0.5 h [2, 12]: 13300 ng/mL; concentration at 0.25 h [2, 12]: 10100 ng/mL; concentration at 5 min [2, 12]: 1500 ng/mL; concentration at 1 h [2, 12]: 11500 ng/mL; concentration at 2 h [2, 12]: 9300 ng/mL; concentration at 4 h [2, 12]: 4600 ng/mL; concentration at 6 h [2, 12]: 2600 ng/mL; concentration at 8 h [2, 12]: 1400 ng/mL; Oral absorbability ([2]; rats, in words): better oral absorbability than the compound No. 2
O=C(O)/C(=C/C1CCCCC1)CP(=O)(O)CC1CCCCC1 [Compound No. 28, (Z)-3-cyclohexyl-2-(cyclohexylmethylhydroxyphosphinoyl)methylpropenoic acid] | 82400 | 19000 | 30400 | 40600 | 58100 | 18300 | 11700 | 4800 | 2300 | 1000 | 100 | 3400 | 3100 | 1300 | 2500 | 3000 | 1900 | 1100 | 500 | 50 | 
C[C@@H](O)[C@H]1C(=O)N2C(C(=O)O)=C(SCCN=CN)C[C@H]12 [Imipenem, reference compound] |  |  |  |  |  |  |  |  |  |  |  |  |  |  |  |  |  |  |  |  | Necrosis of the kidney tissue, number of rabbits which necrotized versus number tested [4]: 4/4; BUN ([4]; auricular vein, 48 hours, * P ≤ 0.05): 70.8 mg/100 ml; Necrosis of the kidney tissue ([4]; grade in words): Marked; Urinary recovery of imipenem, Mean ± S.D. ([1]; imipenem 10 mg/kg iv alone, no inhibitor): 29.6 ± 4.8%
